Data: PubChem BioAssay (NCI)
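Values below derive from 48-hour exposures of cells grown in 96-well plates, with endpoints linearly interpolated between the two concentrations bracketing the appropriate inhibition level. Here, GI50 denotes the concentration required for 50% inhibition of growth. Definition used: TGI = concentration required for complete inhibition of growth.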

Columns and labels:
Experiment in all cases: inhibition of tumour cell growth, NCI panel, 48 h
K-562 leukemia = tested on: K-562 leukemia
HCC-2998 colon = tested on: HCC-2998 colon
TK-10 renal = tested on: TK-10 renal
SF-295 CNS = tested on: SF-295 CNS
RPMI-8226 leukemia = tested on: RPMI-8226 leukemia
RXF 393 renal = tested on: RXF 393 renal
HCT-15 colon = tested on: HCT-15 colon
U251 CNS = tested on: U251 CNS
SF-539 CNS = tested on: SF-539 CNS
NCI-H226 lung = tested on: NCI-H226 lung

Structure (SMILES)	GI50 (K-562 leukemia) [µM]	TGI (K-562 leukemia) [µM]	GI50 (HCC-2998 colon) [µM]	TGI (HCC-2998 colon) [µM]	GI50 (TK-10 renal) [µM]	TGI (TK-10 renal) [µM]	GI50 (SF-295 CNS) [µM]	TGI (SF-295 CNS) [µM]	GI50 (RPMI-8226 leukemia) [µM]	TGI (RPMI-8226 leukemia) [µM]	GI50 (RXF 393 renal) [µM]	TGI (RXF 393 renal) [µM]	GI50 (HCT-15 colon) [µM]	TGI (HCT-15 colon) [µM]	GI50 (U251 CNS) [µM]	TGI (U251 CNS) [µM]	GI50 (SF-539 CNS) [µM]	TGI (SF-539 CNS) [µM]	GI50 (NCI-H226 lung) [µM]	TGI (NCI-H226 lung) [µM]
COc1cc(/C=C(/c2ccccc2)[N+](=O)[O-])c(OC)c2c1OCO2	0.373	13.7	1.97	3.44	2.05	3.81	2.78	7.88	0.459	4.1	1.49	2.85	0.389	1.6	1.52	3.05	1.7	3.09	1.79	3.46
O=C1CCC2(c3ccccc3)Nc3cc(Cl)ccc3N12 (stereo not drawn)	–	> 100	–	> 100	–	> 100	–	96	–	58.6	–	> 100	–	> 100	–	> 100	–	> 100	–	65.1
Fc1ccc(Nc2nccc(-c3c(-c4ccc(C(F)(F)F)cc4)nn4ncccc34)n2)cc1F	> 25	> 25	> 25	> 25	> 25	> 25	> 18.9	> 25	> 25	> 25	> 25	> 25	> 25	> 25	> 25	> 25	> 25	> 25	> 25	> 25
CCCCC[C@H]1C/C=C2/C(=O)C(Cl)=C[C@@H]2C/C=C\CCCC(=O)O[C@@H](CCCCC)C/C=C2/C(=O)C(Cl)=C[C@@H]2C/C=C\CCCC(=O)O1	0.314	2.29	0.349	0.651	0.508	1.6	0.362	0.861	0.188	0.973	0.297	0.576	0.49	1.85	0.291	0.652	0.518	1.97	0.38	0.86
CCOC(=O)c1c(C)n(Cc2ccc(Cl)cc2Cl)c2c1cc1oc(=O)c(=O)n3c(Cc4ccccc4)nc2c13	3.13	7.18	2.25	5.04	2.64	6.95	2.32	10.9	1.71	3.57	2.98	7.34	3.92	14.8	2.45	6.5	8.44	20.7	10.7	25
Cc1ncc([N+](=O)[O-])n1CCNC(=O)CCCn1cnc([N+](=O)[O-])n1	–	> 100	–	> 100	–	> 69.5	–	> 100	–	> 100	–	> 100	–	> 100	–	> 100	–	> 100	–	> 100
CC(=O)OC1C2(CC3N4C(=O)C5(CO)SSC4(CC31O)C(=O)N5C)OC(C)C(C)(C)C2=O (stereo not drawn)	< 0.0288	1.91	< 0.018	0.0538	1.73	3.27	1.96	3.94	< 0.0398	–	0.0473	0.151	< 0.01	< 0.0197	< 0.01	–	0.139	0.215	0.0142	0.0553
O=c1oc2ccc(Cl)cc2c(=O)n1-c1ccc(I)cc1F	0.176	> 100	2.66	8.51	0.605	11.4	1.03	2.79	0.0907	0.436	0.339	1.57	0.231	6.74	0.262	> 35.6	0.231	2.69	0.566	2.92
COc1cc2cc(Oc3ccc(NC(=O)c4ccc(Cl)c(C(F)(F)F)c4)cc3)c(C)nc2cc1OC	9.14	> 100	41.7	> 100	12.4	> 100	2.28	25.7	5.43	32.7	9.04	> 100	12.3	> 100	8.72	> 100	41.3	> 100	19.6	> 100
CC1=CC(=O)C(C(C)=Nc2ccccc2Cl)C(=O)O1 (stereo not drawn)	> 100	> 100	> 100	> 100	> 100	> 100	> 100	> 100	> 100	> 100	> 100	> 100	> 100	> 100	> 100	> 100	> 100	> 100	> 100	> 100
Nc1nc(Nc2cccc(F)c2)nc2ccccc12	24.9	> 100	18	37.3	39.3	90.3	17.8	42.7	23.1	71.1	16.9	45.3	18.4	47	16.8	34.6	16.8	34.2	35	> 100
